Measured values from patent publication US20150291565A1, “INDOLE COMPOUNDS AND THEIR USE AS ANTIMICROBIALS” (Memorial Sloan-Kettering Cancer Center, priority 2012, published 2015).
Values after ≈ are worked out from the molar mass of the structure shown. Like-named read-outs stand apart in the source and are kept apart here.

Assays:
[1] = test system: S. aureus ATCC 33591 (MRSA); assay: Broth dilution MIC, S. aureus ATCC 33591; format: cell-based; details: for MIC: Staphylococcus aureus
[2] = test system: S. pneumoniae ATCC 700674 (PRSP); assay: Broth dilution MIC, S. pneumoniae ATCC 700674; format: cell-based; details: Streptococcus pneumoniae
[3] = test system: C. albicans ATCC 14053; assay: Broth dilution MIC, C. albicans ATCC 14053; format: cell-based; details: Candida albicans, ATCC14053; Table 1; range 64 down to 0.12 μg/ml
Description: In vitro Anti-bacterial & Anti-fungal Activity Assay: All test compounds were prepared as 6.4 mg/ml stock solutions in DMSO and further diluted according to the NCCLS M7-A6 (Page 5) document with sterile water or appropriate diluent. A working stock of 256 μg/ml was used to do 1:2 serial dilutions in 96-well plates. […] The inoculums were prepared by making a direct sterile water suspension of isolated colonies from 18 to 24 hr agar plates for all organisms (Mueller Hinton, Blood Agar or SDA plates). Each bacterial suspension was adjusted to read between 0.09 and 0.11 absorbance at 620 nm. […] These were further diluted 1/100 in appropriate broth for inoculating the 96-well plates. The C. albicans suspension was adjusted to read between 70 and 75% Transmittance at 530 nm and then diluted 1/500 in RPMI+MOPS broth. All aerobic bacterial and fungal plates were incubated for 18 hrs. at 35° C. […] Plates were read using a Beckman Automated Plate Reader at 650 nm. Readings were confirmed by visual examination of plates. (See Table 1, Table 2, Table 3, and Table 4). […] It is important to note that positive results against C. albicans are often indicative of broad spectrum antifungal activity, while negative results are not necessarily conclusory of a lack of activity against other fungus.

[4] = test system: E. coli ATCC 25922; assay: Broth dilution MIC, E. coli ATCC 25922; format: cell-based; details: Escherichia coli
[5] = test system: K. pneumoniae ATCC 51503; assay: Broth dilution MIC, K. pneumoniae ATCC 51503; format: cell-based; details: Klebsiella pneumoniae
[6] = test system: S. aureus BAA-39 (MDR); assay: Broth dilution MIC, S. aureus BAA-39; format: cell-based; details: for MIC: Staphylococcus aureus, BAA39
[7] = test system: E. faecalis ATCC 29212 (VRE); assay: Broth dilution MIC, E. faecalis ATCC 29212; format: cell-based
[8] = test system: S. pneumoniae ATCC 6301 (PSSP); assay: Broth dilution MIC, S. pneumoniae ATCC 6301; format: cell-based; details: Streptococcus pneumoniae
[9] = test system: E. coli ECM 1694; assay: Broth dilution MIC, E. coli ECM 1694; format: cell-based; details: Escherichia coli
[10] = test system: E. faecium CT-26; assay: Broth dilution MIC, E. faecium CT-26; format: cell-based; details: Enterococcus faecium
[11] = test system: M. smegmatis (mc2155); assay: Disk diffusion assay, zone of inhibition, M. smegmatis; format: cell-based; details: disk diffusion zone of inhibition
[12] = test system: S. aureus ATCC 29213 (MSSA); assay: Broth dilution MIC, S. aureus ATCC 29213; format: cell-based; details: Staphylococcus aureus
[13] = test system: K. pneumoniae ATCC 13883; assay: Broth dilution MIC, K. pneumoniae ATCC 13883; format: cell-based; details: Klebsiella pneumoniae
[14] = test system: P. aeruginosa ATCC 9027; assay: Broth dilution MIC, P. aeruginosa ATCC 9027; format: cell-based; details: Pseudomonas aeruginosa
[15] = test system: E. faecium ATCC 700221 (VRE); assay: Broth dilution MIC, E. faecium ATCC 700221; format: cell-based
[16] = test system: MRSA; assay: Disk diffusion assay, zone of inhibition, MRSA; format: cell-based, Staphylococcus aureus; details: disk diffusion zone of inhibition
[17] = Table 1, range 64 down to 0.12 μg/ml, read-out: MIC S. aureus ATCC 33591
[18] = Table 2, broth dilution MIC in ug/ml, read-out: MIC S aureus ATCC 33591 MRSA
[19] = Table 1, range 64 down to 0.12 μg/ml, read-out: MIC S. pneumoniae ATCC 700674
[20] = Table 2, broth dilution MIC in ug/ml, read-out: MIC S pneumonia ATCC 700674 PRSP
[21] = ATCC 25921 / ATCC 25922, Table 2, broth dilution MIC in ug/ml, read-out: MIC E. coli ATCC 25921
[22] = ATCC25922, Table 1, range 64 down to 0.12 μg/ml, read-out: MIC E. coli ATCC 25922
[23] = ATCC51503, Table 1, range 64 down to 0.12 μg/ml, read-out: MIC K. pneumoniae ATCC 51503
[24] = ATCC51503, Table 2, broth dilution MIC in ug/ml, read-out: MIC K pneumonia ATCC 51503
[25] = Table 1, range 64 down to 0.12 μg/ml, read-out: MIC S. aureus BAA-39
[26] = Table 2, broth dilution MIC in ug/ml, read-out: MIC S aureus BAA-39 MDR
[27] = Enterococcus faecalis, Table 1, range 64 down to 0.12 μg/ml, read-out: MIC E. faecalis ATCC 29212
[28] = Table 2, broth dilution MIC in ug/ml, read-out: MIC E faecalis ATCC 29212 VRE
[29] = ATCC6301, Table 1, range 64 down to 0.12 μg/ml, read-out: MIC S. pneumoniae ATCC 6301
[30] = ATCC6301, Table 2, broth dilution MIC in ug/ml, read-out: MIC S pneumonia ATCC 6301 PSSP
[31] = ECM1694, Table 1, range 64 down to 0.12 μg/ml, read-out: MIC E. coli ECM 1694
[32] = ECM1694, Table 2, broth dilution MIC in ug/ml, read-out: MIC E. coli ECM 1693
[33] = CT26, Table 1, range 64 down to 0.12 μg/ml, read-out: MIC E. faecium CT-26
[34] = CT26, Table 2, broth dilution MIC in ug/ml, read-out: MIC E faecium CT-25
[35] = Table 1, range 64 down to 0.12 μg/ml, read-out: MIC S. aureus ATCC 29213
[36] = Table 2, broth dilution MIC in ug/ml, read-out: MIC S aureus ATCC 29213 MSSA
[37] = ATCC13883, Table 1, range 64 down to 0.12 μg/ml, read-out: MIC K. pneumoniae ATCC 13883
[38] = ATCC13883, Table 2, broth dilution MIC in ug/ml, read-out: MIC K pneumonia ATCC 13883
[39] = ATCC 9026 / ATCC 9027, Table 2, broth dilution MIC in ug/ml, read-out: MIC P aeruginosa ATCC 9026
[40] = ATCC9027, Table 1, range 64 down to 0.12 μg/ml, read-out: MIC P. aeruginosa ATCC 9027
[41] = Enterococcus faecium, Table 1, range 64 down to 0.12 μg/ml, read-out: MIC E. faecium ATCC 700221
[42] = Table 2, broth dilution MIC in ug/ml, read-out: MIC E faecium ATCC 700221 VRE

| SMILES | MIC [1, 17] [mg/L] | MIC [1, 18] [mg/L] | MIC [2, 19] [mg/L] | MIC [2, 20] [mg/L] | MIC [3] [mg/L] | MIC [4, 21] [mg/L] | MIC [4, 22] [mg/L] | MIC [5, 23] [mg/L] | MIC [5, 24] [mg/L] | MIC [6, 25] [mg/L] | MIC [6, 26] [mg/L] | MIC [7, 27] [mg/L] | MIC [7, 28] [mg/L] | MIC [8, 29] [mg/L] | MIC [8, 30] [mg/L] | MIC [9, 31] [mg/L] | MIC [9, 32] [mg/L] | MIC [10, 33] [mg/L] | MIC [10, 34] [mg/L] | Zone Size M. smegmatis [11] [mm] | further results |
| --- | --- | --- | --- | --- | --- | --- | --- | --- | --- | --- | --- | --- | --- | --- | --- | --- | --- | --- | --- | --- | --- |
| c1cc(-c2cc3ccc(C4=NCCN4)cc3[nH]2)ccc1NC1CCNCC1 [SKI-6] | 8 (≈ 22.3 µM) | 8 (≈ 22.3 µM) | > 64 | 64 (≈ 178 µM) | > 64 | 32 (≈ 89 µM) | 32 (≈ 89 µM) | > 64 | 64 (≈ 178 µM) | 8 (≈ 22.3 µM) | 8 (≈ 22.3 µM) | > 64 | 64 (≈ 178 µM) | 32 (≈ 89 µM) | 32 (≈ 89 µM) | 4 (≈ 11.1 µM) | 4 (≈ 11.1 µM) | 64 (≈ 178 µM) | 64 (≈ 178 µM) | 16.3 | MIC [12, 35]: 8 mg/L (≈ 22.3 µM); MIC [12, 36]: 8 mg/L (≈ 22.3 µM); MIC [13, 37]: > 64 mg/L; MIC [13, 38]: 64 mg/L (≈ 178 µM); MIC [14, 39]: 64 mg/L (≈ 178 µM); MIC [14, 40]: > 64 mg/L; MIC [15, 41]: > 64 mg/L; MIC [15, 42]: 64 mg/L (≈ 178 µM); Zone Size MRSA [16]: 15 mm |
| c1cnc(-c2ccc(Nc3ccc(-c4cc5ccc(C6=NCCN6)cc5[nH]4)cc3)cc2)cn1 [SKI-10] | 0.5 (≈ 1.16 µM) | 0.5 (≈ 1.16 µM) | ≤ 0.12 | 0.12 (≈ 0.279 µM) | 8 (≈ 18.6 µM) | 2 (≈ 4.65 µM) | 2 (≈ 4.65 µM) | 8 (≈ 18.6 µM) | 8 (≈ 18.6 µM) | 0.5 (≈ 1.16 µM) | 0.5 (≈ 1.16 µM) | 0.25 (≈ 0.581 µM) | 0.25 (≈ 0.581 µM) | ≤ 0.12 | 0.12 (≈ 0.279 µM) | 0.25 (≈ 0.581 µM) | 0.25 (≈ 0.581 µM) | ≤ 0.12 | 0.12 (≈ 0.279 µM) | 14.3 | MIC S. aureus ATCC 33591 ([1]; Table 3, starting at 4 μg/ml): 0.5 mg/L (≈ 1.16 µM); MIC ([2]; Table 3, starting at 4 μg/ml, read-out: MIC S. pneumoniae ATCC 700674): 0.12 mg/L (≈ 0.279 µM); MIC S. aureus BAA-39 ([6]; Table 3, starting at 4 μg/ml): 0.5 mg/L (≈ 1.16 µM); MIC E. faecalis ATCC 29212 ([7]; Table 3, starting at 4 μg/ml): 0.25 mg/L (≈ 0.581 µM); MIC ([8]; ATCC6301, Table 3, starting at 4 μg/ml, read-out: MIC S. pneumoniae ATCC 6301): 0.12 mg/L (≈ 0.279 µM); MIC ([9]; ECM1694, Table 3, starting at 4 μg/ml, read-out: MIC E. coli ECM 1694): 0.25 mg/L (≈ 0.581 µM); MIC ([10]; CT26, Table 3, starting at 4 μg/ml, read-out: MIC E. faecium CT-26): 0.12 mg/L (≈ 0.279 µM); MIC ([12]; Table 3, starting at 4 μg/ml, read-out: MIC S. aureus ATCC 29213): 0.5 mg/L (≈ 1.16 µM); MIC [12, 35]: 0.5 mg/L (≈ 1.16 µM); MIC [12, 36]: 0.5 mg/L (≈ 1.16 µM); MIC [13, 37]: 4 mg/L (≈ 9.29 µM); MIC [13, 38]: 4 mg/L (≈ 9.29 µM); MIC [14, 39]: 16 mg/L (≈ 37.2 µM); MIC [14, 40]: 16 mg/L (≈ 37.2 µM); MIC [15, 41]: ≤ 0.12 mg/L; MIC ([15]; Enterococcus faecium, Table 3, starting at 4 μg/ml, read-out: MIC E. faecium ATCC 700221): 0.12 mg/L (≈ 0.279 µM); MIC [15, 42]: 0.12 mg/L (≈ 0.279 µM); Zone Size MRSA [16]: 11 mm |
